Tests used:
Rattus norvegicus [1] = species on record: Rattus norvegicus; assay: Biodistribution in rat kidney after 5 min time interval; format: ADME, organism-based; details: in vivo
Rattus norvegicus [2] = species on record: Rattus norvegicus; assay: Biodistribution in rat thalamus after 15 min time interval; format: ADME, organism-based; details: in vivo, 0.25 h
Rattus norvegicus [3] = species on record: Rattus norvegicus; assay: Biodistribution in rat plasma after 15 min time interval; format: ADME, organism-based; details: in vivo, 0.25 h
Rattus norvegicus [4] = species on record: Rattus norvegicus; assay: Biodistribution in rat plasma after 90 min time interval; format: ADME, organism-based; details: in vivo, 1.5 h
Rattus norvegicus [5] = species on record: Rattus norvegicus; assay: Biodistribution in rat hypothalamus after 60 min time interval; format: ADME, organism-based; details: in vivo, 1 h
Rattus norvegicus [6] = species on record: Rattus norvegicus; assay: Biodistribution in rat spleen after 5 min time interval; format: ADME, organism-based; details: in vivo
Rattus norvegicus [7] = species on record: Rattus norvegicus; assay: Biodistribution in rat trachea after 90 min time interval; format: ADME, organism-based; details: in vivo, 1.5 h
Rattus norvegicus [8] = species on record: Rattus norvegicus; assay: Biodistribution in rat adrenal after 90 min time interval; format: ADME, organism-based; details: in vivo, 1.5 h
Rattus norvegicus [9] = species on record: Rattus norvegicus; assay: Biodistribution in rat pons after 30 min time interval; format: ADME, organism-based; details: in vivo, 0.5 h
Rattus norvegicus [10] = species on record: Rattus norvegicus; assay: Biodistribution in rat muscle after 5 min time interval; format: ADME, organism-based, Muscle tissue; details: in vivo
Rattus norvegicus [11] = species on record: Rattus norvegicus; assay: Biodistribution in rat liver after 30 min time interval; format: ADME, organism-based; details: in vivo, 0.5 h
Rattus norvegicus [12] = species on record: Rattus norvegicus; assay: Biodistribution in rat hypothalamus after 5 min time interval; format: ADME, organism-based; details: in vivo
Rattus norvegicus [13] = species on record: Rattus norvegicus; assay: Biodistribution in rat post-CTX after 60 min time interval; format: ADME, organism-based; details: in vivo, 1 h
Rattus norvegicus [14] = species on record: Rattus norvegicus; assay: Biodistribution in rat heart after 60 min time interval; format: ADME, organism-based; details: in vivo, 1 h
Rattus norvegicus [15] = species on record: Rattus norvegicus; assay: Biodistribution in rat intestine after 30 min time interval; format: ADME, organism-based; details: in vivo, 0.5 h
Rattus norvegicus [16] = species on record: Rattus norvegicus; assay: Biodistribution in rat pons after 5 min time interval; format: ADME, organism-based; details: in vivo
Rattus norvegicus [17] = species on record: Rattus norvegicus; assay: Biodistribution in rat adrenal after 15 min time interval; format: ADME, organism-based; details: in vivo, 0.25 h
Rattus norvegicus [18] = species on record: Rattus norvegicus; assay: Biodistribution in rat cerebellem after 90 min time interval; format: ADME, organism-based, Cerebellum; details: in vivo, 1.5 h
Rattus norvegicus [19] = species on record: Rattus norvegicus; assay: Biodistribution in rat lung after 30 min time interval; format: ADME, organism-based; details: in vivo, 0.5 h
Rattus norvegicus [20] = species on record: Rattus norvegicus; assay: Biodistribution in rat post-CTX after 30 min time interval; format: ADME, organism-based; details: in vivo, 0.5 h
Rattus norvegicus [21] = species on record: Rattus norvegicus; assay: Biodistribution in rat spleen after 60 min time interval; format: ADME, organism-based; details: in vivo, 1 h
Rattus norvegicus [22] = species on record: Rattus norvegicus; assay: Biodistribution in rat muscle after 15 min time interval; format: ADME, organism-based, Muscle tissue; details: in vivo, 0.25 h
Rattus norvegicus [23] = species on record: Rattus norvegicus; assay: Biodistribution in rat hypothalamus after 15 min time interval; format: ADME, organism-based; details: in vivo, 0.25 h
Rattus norvegicus [24] = species on record: Rattus norvegicus; assay: Biodistribution in rat testes after 90 min time interval; format: ADME, organism-based, Testis; details: in vivo, 1.5 h
Rattus norvegicus [25] = species on record: Rattus norvegicus; assay: Biodistribution in rat liver after 90 min time interval; format: ADME, organism-based; details: in vivo, 1.5 h
Rattus norvegicus [26] = species on record: Rattus norvegicus; assay: Biodistribution in rat liver after 60 min time interval; format: ADME, organism-based; details: in vivo, 1 h
Rattus norvegicus [27] = species on record: Rattus norvegicus; assay: Biodistribution in rat striatum after 60 min time interval; format: ADME, organism-based; details: in vivo, 1 h
Rattus norvegicus [28] = species on record: Rattus norvegicus; assay: Biodistribution in rat pons after 90 min time interval; format: ADME, organism-based; details: in vivo, 1.5 h
Rattus norvegicus [29] = species on record: Rattus norvegicus; assay: Biodistribution in rat blood after 30 min time interval; format: ADME, organism-based; details: in vivo, 0.5 h
Rattus norvegicus [30] = species on record: Rattus norvegicus; assay: Biodistribution in rat plasma after 60 min time interval; format: ADME, organism-based; details: in vivo, 1 h
Rattus norvegicus [31] = species on record: Rattus norvegicus; assay: Biodistribution in rat kidney after 30 min time interval; format: ADME, organism-based; details: in vivo, 0.5 h
Rattus norvegicus [32] = species on record: Rattus norvegicus; assay: Biodistribution in rat lung after 60 min time interval; format: ADME, organism-based; details: in vivo, 1 h
Rattus norvegicus [33] = species on record: Rattus norvegicus; assay: Biodistribution in rat cerebellem after 60 min time interval; format: ADME, organism-based, Cerebellum; details: in vivo, 1 h
Rattus norvegicus [34] = species on record: Rattus norvegicus; assay: Biodistribution in rat muscle after 30 min time interval; format: ADME, organism-based, Muscle tissue; details: in vivo, 0.5 h
Rattus norvegicus [35] = species on record: Rattus norvegicus; assay: Biodistribution in rat trachea after 60 min time interval; format: ADME, organism-based; details: in vivo, 1 h
Rattus norvegicus [36] = species on record: Rattus norvegicus; assay: Biodistribution in rat testes after 5 min time interval; format: ADME, organism-based, Testis; details: in vivo
Rattus norvegicus [37] = species on record: Rattus norvegicus; assay: Biodistribution in rat hippocampus after 90 min time interval; format: ADME, organism-based; details: in vivo, 1.5 h
Rattus norvegicus [38] = species on record: Rattus norvegicus; assay: Biodistribution in rat muscle after 60 min time interval; format: ADME, organism-based, Muscle tissue; details: in vivo, 1 h
Rattus norvegicus [39] = species on record: Rattus norvegicus; assay: Biodistribution in rat pituitary after 15 min time interval; format: ADME, organism-based, Pituitary gland; details: in vivo, 0.25 h
Rattus norvegicus [40] = species on record: Rattus norvegicus; assay: Biodistribution in rat anti-CTX after 60 min time interval; format: ADME, organism-based; details: in vivo, 1 h
Rattus norvegicus [41] = species on record: Rattus norvegicus; assay: Biodistribution in rat striatum after 5 min time interval; format: ADME, organism-based; details: in vivo
Rattus norvegicus [42] = species on record: Rattus norvegicus; assay: Biodistribution in rat post-CTX after 90 min time interval; format: ADME, organism-based; details: in vivo, 1.5 h
Rattus norvegicus [43] = species on record: Rattus norvegicus; assay: Biodistribution in rat anti-CTX after 90 min time interval; format: ADME, organism-based; details: in vivo, 1.5 h
Rattus norvegicus [44] = species on record: Rattus norvegicus; assay: Biodistribution in rat heart after 5 min time interval; format: ADME, organism-based; details: in vivo
Rattus norvegicus [45] = species on record: Rattus norvegicus; assay: Biodistribution in rat blood after 5 min time interval; format: ADME, organism-based; details: in vivo
Rattus norvegicus [46] = species on record: Rattus norvegicus; assay: Biodistribution in rat blood after 60 min time interval; format: ADME, organism-based; details: in vivo, 1 h
Rattus norvegicus [47] = species on record: Rattus norvegicus; assay: Biodistribution in rat striatum after 30 min time interval; format: ADME, organism-based; details: in vivo, 0.5 h
Rattus norvegicus [48] = species on record: Rattus norvegicus; assay: Biodistribution in rat lung after 90 min time interval; format: ADME, organism-based; details: in vivo, 1.5 h
Rattus norvegicus [49] = species on record: Rattus norvegicus; assay: Biodistribution in rat spleen after 90 min time interval; format: ADME, organism-based; details: in vivo, 1.5 h
Rattus norvegicus [50] = species on record: Rattus norvegicus; assay: Biodistribution in rat striatum after 90 min time interval; format: ADME, organism-based; details: in vivo, 1.5 h

## [11CH3]Oc1ccc(CCCn2ncc3c2nc(N)n2nc(-c4ccco4)nc32)cc1
Rattus norvegicus [1]
  ID/g: 0.69%
Rattus norvegicus [2]
  ID/g: 0.1%
Rattus norvegicus [3]
  ID/g: 0.13%
Rattus norvegicus [4]
  ID/g: 0.07%
Rattus norvegicus [5]
  ID/g: 0.02%
Rattus norvegicus [6]
  ID/g: 0.18%
Rattus norvegicus [7]
  ID/g: 0.03%
Rattus norvegicus [8]
  ID/g: 0.14%
Rattus norvegicus [9]
  ID/g: 0.06%
Rattus norvegicus [10]
  ID/g: 0.15%
Rattus norvegicus [11]
  ID/g: 0.52%
Rattus norvegicus [12]
  ID/g: 0.16%
Rattus norvegicus [13]
  ID/g: 0.02%
Rattus norvegicus [14]
  ID/g: 0.04%
Rattus norvegicus [15]
  ID/g: 0.25%
Rattus norvegicus [16]
  ID/g: 0.2%
Rattus norvegicus [17]
  ID/g: 0.44%
Rattus norvegicus [18]
  ID/g: 0.02%
Rattus norvegicus [19]
  ID/g: 0.2%
Rattus norvegicus [20]
  ID/g: 0.05%
Rattus norvegicus [21]
  ID/g: 0.06%
Rattus norvegicus [22]
  ID/g: 0.11%
Rattus norvegicus [23]
  ID/g: 0.07%
Rattus norvegicus [24]
  ID/g: 0.03%
Rattus norvegicus [25]
  ID/g: 0.37%
Rattus norvegicus [26]
  ID/g: 0.36%
Rattus norvegicus [27]
  ID/g: 0.06%
Rattus norvegicus [28]
  ID/g: 0.02%
Rattus norvegicus [29]
  ID/g: 0.06%
Rattus norvegicus [30]
  ID/g: 0.07%
Rattus norvegicus [31]
  ID/g: 0.24%
Rattus norvegicus [32]
  ID/g: 0.37%
Rattus norvegicus [33]
  ID/g: 0.02%
Rattus norvegicus [34]
  ID/g: 0.05%
Rattus norvegicus [35]
  ID/g: 0.04%
Rattus norvegicus [36]
  ID/g: 0.12%
Rattus norvegicus [37]
  ID/g: 0.02%
Rattus norvegicus [38]
  ID/g: 0.04%
Rattus norvegicus [39]
  ID/g: 0.06%
Rattus norvegicus [40]
  ID/g: 0.02%
Rattus norvegicus [41]
  ID/g: 0.43%
Rattus norvegicus [42]
  ID/g: 0.02%
Rattus norvegicus [43]
  ID/g: 0.02%
Rattus norvegicus [44]
  ID/g: 0.26%
Rattus norvegicus [45]
  ID/g: 0.13%
Rattus norvegicus [46]
  ID/g: 0.03%
Rattus norvegicus [47]
  ID/g: 0.2%
Rattus norvegicus [48]
  ID/g: 0.23%
Rattus norvegicus [49]
  ID/g: 0.05%
Rattus norvegicus [50]
  ID/g: 0.04%
